Test results as given in patent US20090075915A1, “6,11-BICYCLOLIDES: BRIDGED BIARYL MACROLIDE DERIVATIVES” (priority 2007, published 2009).
In brackets after ≈: the same amount, converted by molar mass. Entries after “also recorded” stand apart in the source; their conditions may differ. Read-outs that look alike come from different tables or passages of the source. Each block holds one compound with its values, some of them ahead of it.

Assays:
S. aureus 7662 = assay: Systemic mouse protection model, S. aureus 7662; assay type: in vivo; details: Staphylococcus aureus, S. aureus 7662, iv
[1] = Tissue accumulation at the site of infection (plasma, skin, skin abscess); details: for AUC(0-inf) / AUC(0-t) / Cmax / Kp / Tmax / half-life: mouse, po, 50 mg/kg
MRSA 7662 [2] = assay: Mouse skin and soft tissue infection, MRSA 7662; assay type: in vivo; details: Staphylococcus aureus
S. aureus Smith [3] = assay: Systemic mouse protection model (MPT), S. aureus Smith; assay type: in vivo; details: Staphylococcus aureus
MRSA 33591 = assay: MIC, MRSA 33591; assay type: cell-based, Staphylococcus aureus; details: Staphylococcus aureus, MRSA; Table 5
Description: (§1) Susceptibility tests can be used to quantitatively measure the in vitro activity of an antimicrobial agent against a given bacterial isolate. Compounds are tested for in vitro antibacterial activity by a micro-dilution method. Minimal Inhibitory Concentration (MIC) is determined in 96 well microtiter plates utilizing the appropriate broth medium for the observed bacterial isolates. Antimicrobial agents are serially diluted (2-fold) in DMSO to produce a concentration range from about 64 μg/ml to about 0.03 μg/ml. The diluted compounds (2 μl/well) are then transferred into sterile, uninoculated medium (0.2 mL) by use of a 96 fixed tip-pipetting station. The inoculum for each bacterial strain is standardized to approximately 5×10^5 CFU/mL by optical comparison to a 0.5 McFarland turbidity standard. The plates are inoculated with 10 μl/well of adjusted bacterial inoculum. The 96 well plates are covered and incubated at 35±2° C. for 24 hours in ambient air environment. Following incubation, plate wells are visually examined by Optical Density measurement for the presence of growth (turbidity). The lowest concentration of an antimicrobial agent at which no visible growth occurs is defined as the MIC.
(§2) All in vitro testing follows the guidelines described in the Approved Standards M7-A7 protocol, published by the Clinical Laboratory Standards Institute (CLSI).

MRSA 7662 [4] = assay: MIC, MRSA 7662; assay type: cell-based; details: Staphylococcus aureus
Description: as §1, §2

S. aureus Smith [5] = assay: MIC, S. aureus Smith; assay type: cell-based, Staphylococcus aureus
Description: as §1, §2

H influenzae 33929 = assay: MIC, H influenzae 33929; assay type: cell-based, Haemophilus influenzae; details: Haemophilus influenzae, 33929; Table 5
Description: as §1, §2

H influenzae 49247 = assay: MIC, H influenzae 49247; assay type: cell-based, Haemophilus influenzae; details: Haemophilus influenzae, 49247; Table 5
Description: as §1, §2

[6] = Oral pharmacokinetics in rat plasma and lung tissue; assay type: in vivo; details: 10 mg/kg PO; for AUC(0-t): read-out: AUC0-24; for Kp: lung/plasma, po, 10 mg/kg
H. influenzae 3643 [7] = assay: MIC, H. influenzae 3643; assay type: cell-based, Haemophilus influenzae; parameters: unit not given beside the values
Description: as §1, §2

H. influenzae 3643 [8] = assay: Rat lung infection model (RLI), H. influenzae 3643; assay type: in vivo; details: Haemophilus influenzae, read-out: ED50 (2Log Red for RLI)
H. influenzae S1280 [9] = assay: MIC, H. influenzae S1280; assay type: cell-based, Haemophilus influenzae; parameters: unit not given beside the values
Description: as §1, §2

S. pneumoniae 7701 [10] = assay: MIC, S. pneumoniae 7701; assay type: cell-based
Description: as §1, §2

H. influenzae 1435 [11] = assay: Rat lung infection model (RLI), H. influenzae 1435; assay type: in vivo; details: Haemophilus influenzae, read-out: ED50 (2Log Red for RLI)
H. influenzae 1435 [12] = assay: MIC, H. influenzae 1435; assay type: cell-based, Haemophilus influenzae; parameters: unit not given beside the values
Description: as §1, §2

[13] = Oral pharmacokinetics in mice; assay type: in vivo; details: 15 mg/kg
[14] = Oral pharmacokinetics in dog; assay type: in vivo; details: for Cmax / Tmax / half-life / AUC(0-t): in vivo; for Cmax / Tmax / half-life / AUC(0-t) / CLF / F / Vd: oral, Dog; for AUC(0-t): read-out: AUC0-24
S. pneumoniae 7701 [15] = assay: Mouse protection test model (MPT), S. pneumoniae 7701; assay type: in vivo; details: Streptococcus pneumoniae
H. influenzae S1280 [16] = assay: Rat lung infection model (RLI), H. influenzae S1280; assay type: in vivo; details: Haemophilus influenzae, read-out: ED50 (2Log Red for RLI)
[17] = Oral pharmacokinetics in rat; assay type: in vivo; details: 10 mg/kg
[18] = Rat PK of amino acid prodrug after IV/PO administration; assay type: in vivo
[19] = In vitro blood incubation of amino acid prodrugs, fresh human blood; assay type: in vitro ADME; details: 2 μM prodrug
Description: (§3) Compounds 5, 6, 7 and 8 (2 μM) were incubated with fresh human blood (conducted in duplicate), rat and mouse blood. Reaction was started by the addition of compound 5, and was stopped at predefined time points (0, 5, 10, 15, 30, 45 and 60 minutes) by removing one aliquot from the incubation mixture (0.1 mL per aliquot) and adding it to 3-fold volume of stop reagent (ice-cold acetonitrile, 0.3 mL). Precipitated protein was removed by centrifugation. Prodrug compound 5-8 and parent compound 1 or 3 concentrations in the supernatant were analyzed by LC/MS/MS.

[20] = In vitro blood incubation of amino acid prodrugs, rat blood; assay type: in vitro ADME; details: 2 μM prodrug
Description: as §3

[21] = In vitro blood incubation of amino acid prodrugs, mouse blood; assay type: in vitro ADME, Mice; details: 2 μM prodrug
Description: as §3

[22] = table of animal models of infection
[23] = plasma, 10 mg/kg IV, prodrug itself measured

SMILES: CCC(=O)/N=C1\[C@H](C)C[C@@]2(C)OC/C(=N/OCc3ccc(-c4nc(N)cs4)cn3)CO[C@H]([C@H]1C)[C@](C)(O)[C@@H](CC)OC(=O)[C@@](C)(F)C(=O)[C@H](C)[C@H]2O[C@@H]1O[C@H](C)C[C@H](N(C)C)[C@H]1O [Compound 1]
ED50 (S. aureus 7662): 3.6 mg/kg
Accumulation at the site of infection ([1]; infected skin tissue of mice): highly accumulated at the site of infections in infected skin tissue of mice
AUC(0-inf) ([1]; infected skin abscess): 617000 ng·h/mL
AUC(0-t) ([1]; infected skin abscess): 257000 ng·h/mL
Cmax ([1]; infected skin abscess): 9030 ng/mL
Kp ([1]; infected skin abscess): 25.2
Tmax ([1]; infected skin abscess): 3 h
half-life ([1]; infected skin abscess): 52.4 h
AUC(0-inf) ([1]; plasma): 24500 ng·h/mL
AUC(0-t) ([1]; plasma): 24400 ng·h/mL
Cmax ([1]; plasma): 5120 ng/mL
Tmax ([1]; plasma): 0.5 h
half-life ([1]; plasma): 5.2 h
AUC(0-inf) ([1]; uninfected skin): 66600 ng·h/mL
AUC(0-t) ([1]; uninfected skin): 54600 ng·h/mL
Cmax ([1]; uninfected skin): 3800 ng/mL
Kp ([1]; uninfected skin): 2.72
Tmax ([1]; uninfected skin): 3 h
half-life ([1]; uninfected skin): 17.9 h
ED50 (MRSA 7662 [2]; MRSA 7662, iv): 12 mg/kg
ED50 (MRSA 7662 [2]; MRSA 7662, po): 29 mg/kg
ED50 (S. aureus Smith [3]; systemic mouse protection model, iv): 4.8 mg/kg
ED50 (S. aureus Smith [3]; systemic mouse protection model, po): 13.3 mg/kg
MIC (MRSA 33591): 2 µg/mL (≈ 2.21 µM)
MIC (MRSA 7662 [4]; S. aureus 7662, table of systemic mouse protection model, read-out: MIC): 1000 µg/mL (≈ 1100 µM)
MIC (MRSA 7662 [4]; Table 5, read-out: MIC MRSA 7662): 1 µg/mL (≈ 1.1 µM)
MIC (S. aureus Smith [5]; Staphylococcus aureus, table of systemic mouse protection model, read-out: MIC): 130 µg/mL (≈ 144 µM)
MIC (H influenzae 33929): 4 µg/mL (≈ 4.42 µM)
MIC (H influenzae 49247): 4 µg/mL (≈ 4.42 µM)

Cmax ([6]; Lung): 19000 ± 80 ng/mL
Tmax ([6]; Lung): 2.33 ± 1.15 h
half-life ([6]; Lung): 2.51 ± 0.1 h
AUC(0-t) ([6]; Lung): 110000 ± 12900 ng·h/mL
Cmax ([6]; Plasma): 2540 ± 80 ng/mL
Tmax ([6]; Plasma): 1.67 ± 1.15 h
half-life ([6]; Plasma): 2.06 ± 0.45 h
AUC(0-t) ([6]; Plasma): 13900 ± 2810 ng·h/mL
Kp ([6]; read-out: AUC Lung/Plasma): 8 ± 0.9
Kp ([6]; read-out: Cmax Lung/plasma): 7.5 ± 1
MIC (H. influenzae 3643 [7]): 16
MIC (H. influenzae S1280 [9]): 8
MIC (S. pneumoniae 7701 [10]): <=0.06
MIC (H. influenzae 1435 [12]): 4
CLF [13]: 26.7 mL/min/kg
F [13]: 100%
Vd [13]: 6.8 L/kg
Cmax ([13]; mouse, in vivo): 2430 ng/mL
Tmax ([13]; mouse, in vivo): 0.5 h
half-life ([13]; mouse, in vivo): 2.4 h
AUC(0-t) ([13]; mouse, in vivo, read-out: AUC0-24): 9800 ng·h/mL
Cmax ([14]; 5 mg/kg): 2470 ng/mL
Tmax ([14]; 5 mg/kg): 1.3 h
half-life ([14]; 5 mg/kg): 7.3 h
AUC(0-t) ([14]; 5 mg/kg): 32600 ng·h/mL
Cmax ([14]; 10 mg/kg): 5040 ng/mL
Tmax ([14]; 10 mg/kg): 6 h
half-life ([14]; 10 mg/kg): 15.8 h
AUC(0-t) ([14]; 10 mg/kg): 84400 ng·h/mL
CLF ([14]; 5 mg/kg): 1.67 mL/min/kg
F ([14]; 5 mg/kg): 71%
Vd ([14]; 5 mg/kg): 1.0 L/kg
CLF ([14]; 10 mg/kg): 1.67 mL/min/kg
F ([14]; 10 mg/kg): 100%
Vd ([14]; 10 mg/kg): 1.54 L/kg
MIC (S. aureus Smith [5]; [22]): 0.25
MIC (H influenzae 33929): 4 µg/mL (≈ 4.75 µM)
MIC (H influenzae 49247): 4 µg/mL (≈ 4.75 µM)
CLF [17]: 10.7 mL/min/kg
F [17]: 87%
Vd [17]: 1.97 L/kg
Cmax ([17]; plasma): 2540 ng/mL
Tmax ([17]; plasma): 1.7 h
half-life ([17]; plasma): 2.1 h
AUC(0-t) ([17]; plasma, read-out: AUC0-24): 13900 ng·h/mL
SMILES: CC[C@H]1OC(=O)[C@H](C)C(=O)[C@H](C)[C@@H](O[C@@H]2O[C@H](C)C[C@H](N(C)C)[C@H]2O)[C@@]2(C)C[C@@H](C)/C(=N\C(C)=O)[C@H](C)[C@@H](OC/C(=N\OCc3ccc(-c4ccno4)nc3)CO2)[C@]1(C)O [Compound 4]
ED50 (S. aureus Smith [3]; MPT): 9 mg/kg
ED50 (H. influenzae 3643 [8]): 64 mg/kg
ED50 (H. influenzae 1435 [11]): 33 mg/kg
Animal pharmacokinetics properties in dogs ([14]; dogs): low clearance, excellent oral absorption (bioavailability) and AUC
ED50 (S. pneumoniae 7701 [15]): 9 mg/kg
ED50 (H. influenzae S1280 [16]): 46 mg/kg

ClF ([18]; 10 mg/kg IV, prodrug itself measured): 788 mL/min/kg
AUC(0-inf) [18, 23]: 210 ng·h/mL
Cmax [18, 23]: 310 ng/mL
Tmax [18, 23]: 4.8 min
Vd [18, 23]: 13.3 L/kg
half-life [18, 23]: 0.2 h
% remaining after 60 min, Human [19]: 8.3%
% remaining after 60 min, Rat [20]: 9.3%
% remaining after 60 min, Mice [21]: 5.6%
SMILES: CCC(=O)/N=C1\[C@H](C)C[C@@]2(C)OC/C(=N/OCc3ccc(-c4nc(NC(=O)[C@@H](N)CC(C)C)cs4)cn3)CO[C@H]([C@H]1C)[C@](C)(O)[C@@H](CC)OC(=O)[C@@](C)(F)C(=O)[C@H](C)[C@H]2O[C@@H]1O[C@H](C)C[C@H](N(C)C)[C@H]1O [Compound 6]
Prodrug in plasma after oral administration ([18]; 10 mg/kg PO, prodrug itself, 10 mg/kg): No prodrug was detected in the plasma; also recorded: None detected in plasma via oral route-
Conversion to the parent amino derivative (Compound 1) ([18]; after oral (po) and IV administration): rapidly converted to the parent amino derivative

MIC (H. influenzae 3643 [7]): 4
MIC (H. influenzae S1280 [9]): 2
MIC (S. pneumoniae 7701 [10]): 0.25
MIC (H. influenzae 1435 [12]): 2
MIC (S. aureus Smith [5]; [22]): 0.13
SMILES: CC[C@H]1OC(=O)[C@H](C)C(=O)[C@H](C)[C@@H](O[C@@H]2O[C@H](C)C[C@H](N(C)C)[C@H]2O)[C@](C)(OC)C[C@@H](C)C(=O)[C@H](C)[C@H]2N(CCCCn3cnc(-c4cccnc4)c3)C(=O)O[C@]12C [Telithromycin, reference compound]
ED50 (S. aureus Smith [3]; MPT): 11 mg/kg
ED50 (H. influenzae 3643 [8]): 78 mg/kg
ED50 (H. influenzae 1435 [11]): 49 mg/kg
ED50 (S. pneumoniae 7701 [15]): 10 mg/kg
ED50 (H. influenzae S1280 [16]): 56 mg/kg
